{"source": "paper PMC5728534", "about": "(PLoS ONE, 2017)", "key": {"OCT3": {"biological_target": "T1, OCT3 (Homo sapiens, UniProt O75751)", "T1 construct": "expressed in transfected cells; host or cells: HEK293 (Flp-In)", "T1 sequence (O75751 1-556)": "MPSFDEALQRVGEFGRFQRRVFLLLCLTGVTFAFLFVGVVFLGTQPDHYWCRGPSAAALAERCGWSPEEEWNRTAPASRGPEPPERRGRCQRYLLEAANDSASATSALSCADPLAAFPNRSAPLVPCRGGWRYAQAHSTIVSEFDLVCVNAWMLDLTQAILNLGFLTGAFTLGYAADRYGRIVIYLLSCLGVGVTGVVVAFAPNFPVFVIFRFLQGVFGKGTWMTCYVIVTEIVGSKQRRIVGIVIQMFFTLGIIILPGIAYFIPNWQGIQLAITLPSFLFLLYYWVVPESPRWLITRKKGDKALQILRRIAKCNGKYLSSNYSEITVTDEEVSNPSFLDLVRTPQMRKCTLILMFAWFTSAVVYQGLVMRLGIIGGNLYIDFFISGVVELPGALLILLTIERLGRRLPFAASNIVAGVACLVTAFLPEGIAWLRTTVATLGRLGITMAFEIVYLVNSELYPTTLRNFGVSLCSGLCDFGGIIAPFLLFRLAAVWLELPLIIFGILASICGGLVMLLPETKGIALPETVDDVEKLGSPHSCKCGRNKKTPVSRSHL", "assay": "Ranitidine uptake in HEK293 cells overexpressing OCT3", "type": "in vitro ADME", "text": "(§1) HEK293 or CHO cells overexpressing the human OCT1 alleles *1A (characterized by the amino acid substitution Met408Val), *1B, *1C (Phe160Leu), *1D (Pro341Leu/Met408Val), *2 (Met420del), *3 (Arg61Cys), *4 (Gly401Ser), *5 (Gly465Arg/Met420del), *6 (Cys88Arg/Met420del), *7 (Ser14Phe), *8A (Arg488Met), *8B (Arg488Met/Met408Val), *9 (Pro117Leu), *10 (Ser189Leu), *11 (Ile449Thr), *12 (Ser29Leu), or *13 (Thr245Met), the human OCT2 reference and variant alleles (Ala270Ser), human OCT3, and the control cells (transfected with the empty pcDNA5 vector) were generated by targeted chromosomal integration using the Flp-In™ System (Life Technologies, Darmstadt, Germany).\n(§2) Six hundred thousand HEK293 or CHO cells were plated per well in 12-well plates (pre-coated with poly-D-lysine) and were grown for 48 hours to reach confluence. Cells were kept at 37°C and 5% CO2 in DMEM (HEK293) or RPMI (CHO), supplemented with 10% FCS, 100 U/ml penicillin, and 100 μg/ml streptomycin. Uptake experiments were performed at pH 7.4 using HBSS supplemented with 10 mM HEPES buffer (herein referred to as HBSS+). […]\n(§3) For all transport measurements, the intracellular amount of substrate was normalized to the total amount of protein of the sample as measured using the bicinchoninic acid assay [49].\n(§4) For quantification of intracellular substrates, the cell debris were removed by centrifugation at 17,000 x g for 10 min. […]"}, "OCT1*1A (Met408Val)": {"biological_target": "T2, OCT1*1A (Met408Val) (Homo sapiens, UniProt O15245, L160F/M408V)", "T2 sequence (O15245 1-554 L160F/M408V)": "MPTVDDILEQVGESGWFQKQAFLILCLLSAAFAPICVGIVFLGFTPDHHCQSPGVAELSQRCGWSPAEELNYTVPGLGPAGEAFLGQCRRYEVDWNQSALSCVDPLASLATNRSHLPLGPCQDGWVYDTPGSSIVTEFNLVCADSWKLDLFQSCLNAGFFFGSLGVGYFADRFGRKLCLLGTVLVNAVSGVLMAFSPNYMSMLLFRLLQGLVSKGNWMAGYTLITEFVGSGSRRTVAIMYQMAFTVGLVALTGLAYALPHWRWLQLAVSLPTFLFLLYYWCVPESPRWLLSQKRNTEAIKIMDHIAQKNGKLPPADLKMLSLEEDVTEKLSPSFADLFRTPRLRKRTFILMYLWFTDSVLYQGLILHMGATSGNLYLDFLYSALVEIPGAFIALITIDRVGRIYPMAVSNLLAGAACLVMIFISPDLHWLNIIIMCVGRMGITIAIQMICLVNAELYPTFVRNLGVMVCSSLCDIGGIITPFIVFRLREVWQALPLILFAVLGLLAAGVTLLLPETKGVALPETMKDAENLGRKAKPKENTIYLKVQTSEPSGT", "conditions": "1 and 10 μM ranitidine, 2 min", "text": "as §1, §2, §3, §4"}, "OCT1*1C (Phe160Leu)": {"biological_target": "T3, OCT1*1C (Phe160Leu) (Homo sapiens, UniProt O15245)", "T3 sequence (O15245 1-554)": "T2 sequence (O15245 1-554 L160F/M408V) with F160L, V408M", "conditions": "1 and 10 μM ranitidine, 2 min", "text": "as §1, §2, §3, §4"}, "OCT1*8 (Arg488Met)": {"biological_target": "T4, OCT1*8 (Arg488Met) (Homo sapiens, UniProt O15245, L160F/R488M)", "T4 sequence (O15245 1-554 L160F/R488M)": "T2 sequence (O15245 1-554 L160F/M408V) with V408M, R488M", "conditions": "not statistically significant (P = 0.5)", "text": "as §1, §2, §3, §4"}}, "note": "Numbering of substitutions follows the chain as printed."}
{"compound": "CNC(=C[N+](=O)[O-])NCCSCc1ccc(CN(C)C)o1", "note": "[ranitidine, Ranitidine]", "values": [{"measurement": "increase in ranitidine uptake, OCT3-overexpressing cells compared to the controls", "setting": "OCT3; HEK293, 10-600 μM ranitidine, 2 min", "value": "up to 2 fold"}, {"measurement": "OCT3-mediated uptake lower than the OCT1-mediated uptake of ranitidine", "setting": "OCT3; at clinically relevant concentrations", "value": "more than 14 fold"}, {"measurement": "uptake of ranitidine compared to the reference allele", "setting": "OCT1*1A (Met408Val)", "value": "no significant difference"}, {"measurement": "uptake of ranitidine compared to the reference allele", "setting": "OCT1*1C (Phe160Leu)", "value": "no significant difference"}, {"measurement": "increase in vmax compared to the reference allele", "setting": "OCT1*8 (Arg488Met)", "value": 25, "unit": "%"}]}
